In article PMC12138161, “Structure–activity analysis of imino‐pyrimidinone‐fused pyrrolidines aids the development of dual plasmepsin V and plasmepsin X inhibitors” (The Febs Journal, 2025):
Values joined by “and” are separate entries in the source; they are usually repeats but may differ in a detail not shown here. Identical values can stand only once. Like-named read-outs stand apart in the source and are kept apart here.

How the values were obtained:
[1] = target: T1, Plasmodium falciparum PMIX (Plasmodium falciparum, UniProt Q8ILG2); assay: Plasmepsin IX fluorogenic substrate cleavage assay; type: biochemical; conditions: P. falciparum PMIX; average of three independent experiments; read-out: PMIX IC50 (SD)
T1 sequence (Q8ILG2 1-627): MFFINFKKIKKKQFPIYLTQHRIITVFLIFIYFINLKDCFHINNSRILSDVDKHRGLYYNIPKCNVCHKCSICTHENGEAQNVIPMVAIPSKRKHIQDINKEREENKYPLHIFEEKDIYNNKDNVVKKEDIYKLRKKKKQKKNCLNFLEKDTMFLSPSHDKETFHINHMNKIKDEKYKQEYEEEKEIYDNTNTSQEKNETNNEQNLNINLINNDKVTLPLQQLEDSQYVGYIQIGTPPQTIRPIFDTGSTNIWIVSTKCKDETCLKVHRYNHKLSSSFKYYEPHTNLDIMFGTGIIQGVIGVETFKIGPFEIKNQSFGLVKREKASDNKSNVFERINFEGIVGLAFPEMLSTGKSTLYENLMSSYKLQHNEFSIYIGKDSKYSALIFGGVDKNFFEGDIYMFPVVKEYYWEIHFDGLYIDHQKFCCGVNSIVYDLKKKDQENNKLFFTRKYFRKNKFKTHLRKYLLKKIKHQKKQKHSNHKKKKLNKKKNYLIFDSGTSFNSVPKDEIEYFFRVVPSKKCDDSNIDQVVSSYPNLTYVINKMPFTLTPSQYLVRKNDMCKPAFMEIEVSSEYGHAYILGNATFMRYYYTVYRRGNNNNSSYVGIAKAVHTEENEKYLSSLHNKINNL
Method: (§1) These fluorogenic assays follow protocols previously described. Compound potency was assessed with 10 point, threefold dilution series starting at 100 μM in duplicate per experiment and repeated in three independent experiments. Data were normalized to percent inhibition relative to 1% DMSO (high control) and either 1 μM WEHI‐600 for PMV and 1 μM WM382 for PMIX/PMX (low controls). IC50 values (relative inflection of dose–response curve) were calculated using a nonlinear regression four‐parameter fit analysis in DOTMATICS 5.3 (Dotmatics, Boston, MA, USA) and SPOTFIRE 7.11.1 (Goteborg, Sweden) software. The equation used was sigmoidal dose–response (variable slope), Y = bottom + (top − bottom)/(1 + 10 ((logIC50 − X) × Hill Slope)). Reported IC50 values were calculated based on the averages of three independent dataset. Assay robustness and data quality was assessed by Z′ > 0.5 (Z′ = 1 − (3 × (SD high + SD low)/(mean high − mean low))) and activity reproducibility of reference compound. WEHI‐600 (PMV) or WM382 (PMIX/PMX) were included as reference compounds in every experiment to monitor the assay performance. Any drift in activity greater than threefold from the average acceptable range and the experiment was rejected and repeated.

[2] = target: T2, recombinant Plasmodium vivax PMV (Plasmodium vivax, UniProt A5K302); assay: Plasmepsin V fluorogenic substrate cleavage assay; type: biochemical; conditions: for IC50: recombinant P. vivax PMV, average of three independent experiments, read-out: PMV IC50 (SD)
T2 construct: PvPMV (residues R35–R476) was prepared similarly; gp67 signal peptide (N); TEV protease cleavage site + FLAG tag (C); made in house; host or cells: Sf21 insect cells
Description: To uncover nonpeptidomimetic drug‐like inhibitors of the aspartic protease PvPMV, we screened a library of 1298 compounds that were known to inhibit human aspartyl proteases. These compounds were selected by chemoinformatic structural diversity from a larger library of compounds that targeted human aspartyl proteases and has been used previously to identify hit compounds that inhibited P. falciparum growth. These hit compounds belonged to a single chemical class and were used to develop a lead compound WM382 that is a dual selective inhibitor of PMIX and PMX from P. falciparum and P. vivax. The screen utilized a FRET‐based assay with PvPMV and a fluorogenic EDANS‐DACBYL labeled peptide with the P. falciparum knob‐associated histidine‐rich protein (KAHRP) PEXEL motif amino acid sequence.
as §1

[3] = tested on: P. falciparum 3D7 asexual parasites; assay: P. falciparum growth inhibition assay (LDH activity, 72 h); type: cell-based, Plasmodium falciparum; conditions: for EC50: Plasmodium falciparum, 3D7 asexual parasites, 72 h exposure, LDH activity, three independent experiments, read-out: Pf 3D7 EC50 (SD)
Method: The ability of compounds to block growth of blood stage P. falciparum parasites was determined using a growth inhibition assay (GIA) as described. Compound potency was assessed with 10 point, threefold dilution series starting at 10 μM in duplicate per experiment and repeated in three independent experiments. Data were normalized to percent viability relative to 0.1% DMSO (high growth control) and 2.5 μM chloroquine (low growth control). EC50 values (relative inflection of dose–response curve) were calculated using a nonlinear regression four‐parameter fit analysis in DOTMATICS 5.3 and SPOTFIRE 7.11.1 software. The equation used was sigmoidal dose–response (variable slope), Y = bottom + (top − bottom)/(1 + 10 ((logEC50 − X) × Hill Slope)). Reported EC50 values were calculated on the average of three independent dataset. Assay robustness and data quality was assessed by Z′ > 0.5 (Z′ = 1 − (3 × (SD high + SD low)/(mean high − mean low))) and activity reproducibility of reference compound WM382, which was included in every experiment. Any drift in WM382 activity greater than threefold from the average acceptable range and the experiment was rejected and repeated.

[4] = target: P. falciparum PMX (Plasmodium falciparum, UniProt Q8IAS0); assay: Plasmepsin X fluorogenic substrate cleavage assay; type: biochemical; conditions: for IC50: P. falciparum PMX, average of three independent experiments, read-out: PMX IC50 (SD)
Method: as §1

[5] = tested on: PMV; conditions: cited from earlier work
[6] = tested on: 3D7 strain of Plasmodium falciparum; conditions: blood stage growth, read-out: Pf 3D7 EC50; cited from earlier work
[7] = tested on: PMIX; conditions: cited from earlier work
[8] = tested on: PMX; conditions: cited from earlier work

T2 sequence (A5K302 35-476): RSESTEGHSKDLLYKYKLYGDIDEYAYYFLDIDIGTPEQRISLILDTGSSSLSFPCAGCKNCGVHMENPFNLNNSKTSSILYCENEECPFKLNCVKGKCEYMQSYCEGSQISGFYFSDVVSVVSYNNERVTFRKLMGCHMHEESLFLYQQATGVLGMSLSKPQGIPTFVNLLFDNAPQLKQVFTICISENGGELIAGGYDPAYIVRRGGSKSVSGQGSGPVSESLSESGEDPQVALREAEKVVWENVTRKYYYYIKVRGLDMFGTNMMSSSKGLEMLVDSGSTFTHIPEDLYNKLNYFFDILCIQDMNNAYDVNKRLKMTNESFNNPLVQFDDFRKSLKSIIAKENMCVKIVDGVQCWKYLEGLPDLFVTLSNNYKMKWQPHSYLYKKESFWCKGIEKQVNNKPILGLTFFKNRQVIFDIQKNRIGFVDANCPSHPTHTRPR
Sequence of P. falciparum PMX (Q8IAS0 222-573): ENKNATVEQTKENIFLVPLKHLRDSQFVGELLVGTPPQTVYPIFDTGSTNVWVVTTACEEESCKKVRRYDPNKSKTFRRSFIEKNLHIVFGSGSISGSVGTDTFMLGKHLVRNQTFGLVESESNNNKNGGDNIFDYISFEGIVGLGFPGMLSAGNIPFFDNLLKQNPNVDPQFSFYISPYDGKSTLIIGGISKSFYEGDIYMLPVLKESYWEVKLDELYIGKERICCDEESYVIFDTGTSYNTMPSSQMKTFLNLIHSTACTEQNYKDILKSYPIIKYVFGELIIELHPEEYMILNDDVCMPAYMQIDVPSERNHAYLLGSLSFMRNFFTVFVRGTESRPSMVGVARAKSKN

## CN1C(=N)NC2(c3cc(F)ccc3F)CN(c3ncccc3-c3ccccc3F)CC2C1=O (centres unmarked) [Compound 7]
[1]
  IC50: 4.53 µM
[2]
  IC50: 1.02 µM
[3]
  EC50: > 10 µM
[4]
  IC50: 1.33 µM

## Cc1ccc(-c2cccnc2N2CC3C(=O)N(C)C(=N)NC3(c3cc(F)ccc3F)C2)c(Cl)c1 (centres unmarked) [Compound 22]
[1]
  IC50: 1.63 µM
[2]
  IC50: 0.69 µM
[3]
  EC50: > 10 µM
[4]
  IC50: 0.42 µM

## C[C@@H](NC[C@@H](O)[C@H](Cc1ccccc1)NC(=O)c1ccc(C(=O)N2CCN(C)CC2)cc1)c1ccccc1 [49c (3)]
[5]
  IC50: > 1 µM
[6]
  EC50: 0.0006 µM
[7]
  IC50: 0.65 µM
[8]
  IC50: 0.0014 µM

## CN1C(=N)NC2(c3cc(F)ccc3F)CN(c3ncccc3-c3cccc(Cl)c3)CC2C1=O (centres unmarked) [Compound 12]
[1]
  IC50: 0.39 to 1.17 µM and 0.56 µM
[2]
  IC50: > 3.7 µM
[3]
  EC50: > 10 µM
[4]
  IC50: 0.39 to 1.17 µM and 0.39 µM

## CN1C(=N)NC2(c3cc(F)ccc3F)CN(c3ncccc3-c3ccc(Cl)c(F)c3)CC2C1=O (centres unmarked) [Compound 20]
[1]
  IC50: 1.15 µM
[2]
  IC50: 1.01 µM
[3]
  EC50: > 10 µM
[4]
  IC50: 0.44 µM

## CN1C(=N)NC2(c3cc(F)ccc3F)CN(c3nn(C)cc3-c3ccccc3)CC2C1=O (centres unmarked) [Compound 29]
[1]
  IC50: 10.4 µM
[2]
  IC50: 1.05 µM
[3]
  EC50: > 10 µM
[4]
  IC50: 3.47 µM

## CN1C(=N)NC2(c3cc(F)ccc3F)CN(c3ncccc3-c3ccccc3Cl)CC2C1=O (centres unmarked) [R/S‐WM36 (8)]
[1]
  IC50: 4.87 µM
[2]
  IC50: 0.807 µM
[3]
  EC50: > 10 µM
[3]; blood stage
  inhibition of P. falciparum asexual parasite replication / antimalarial activity (in words): did not inhibit
[4]
  IC50: 1.1 µM

## CN1C(=N)NC2(c3cc(F)ccc3F)CN(c3n[nH]cc3-c3ccccc3)CC2C1=O (centres unmarked) [R/S‐WM447 (28), 7a‐(2,5‐difluorophenyl)‐2‐imino‐3‐methyl‐6‐(4‐phenyl‐1H‐pyrazol‐3‐yl)hexahydro‐1H‐pyrrolo[3,4‐d]pyrimidin‐4(4aH)‐one]
[1]
  IC50: 2.17 µM
[2]
  IC50: 0.683 µM
[3]
  EC50: 1.53 µM
[4]
  IC50: 0.064 µM

## COc1ccc(-c2cccnc2N2CC3C(=O)N(C)C(=N)NC3(c3cc(F)ccc3F)C2)c(Cl)c1 (centres unmarked) [Compound 23]
[1]
  IC50: 1.63 µM
[2]
  IC50: 3.17 µM
[3]
  EC50: > 10 µM
[4]
  IC50: 0.42 µM

## CN1C(=N)NC2(c3cc(F)ccc3F)CN(c3ncccc3-c3ccccc3)CC2C1=O (centres unmarked) [Compound 6]
[1]
  IC50: 3 µM
[2]
  IC50: 0.44 µM
[3]
  EC50: > 10 µM
[4]
  IC50: 1.07 µM

## CN1C(=N)NC2(c3cc(F)ccc3F)CN(c3ncccc3-c3cccs3)CC2C1=O (centres unmarked) [Compound 24]
[1]
  IC50: 1.2 µM
[2]
  IC50: 1.23 µM
[3]
  EC50: 1.77 µM
[4]
  IC50: 0.067 µM

## Cc1c(NC(=O)c2cccc(C#N)c2)cccc1[C@]1(C)CC(=O)N([C@H]2CCO[C@@H](C)C2)C(=N)N1 [UCB7362 (4)]
[6]
  EC50: 0.01 µM
[7]
  IC50: 0.142 µM
[8]
  IC50: 0.007 µM

## COc1ccc(-c2cccnc2N2CC3C(=O)N(C)C(=N)NC3(c3cc(F)ccc3F)C2)cc1 (centres unmarked) [Compound 15]
[1]
  IC50: 2 µM
[2]
  IC50: 3.6 µM
[3]
  EC50: > 10 µM
[4]
  IC50: 0.473 µM

## CC(C)C[C@H](NC(=O)[C@@H](NC(=O)[C@H](CCONC(=N)N)NC(=O)OCc1ccccc1)C1CCCCC1)[C@@H](O)CC(=O)NCCc1ccccc1 [WEHI-601 (2)]
[5]
  IC50: 0.005 µM
[5]; stated in text with reference to Fig. 1
  IC50: < 0.02 µM
[6]
  EC50: 0.09 µM
[7]
  IC50: > 50 µM
[8]
  IC50: 0.33 µM

## CN1C(=N)NC2(c3cc(F)ccc3F)CN(c3ncccc3-c3ccccc3C(F)(F)F)CC2C1=O (centres unmarked) [Compound 10]
[1]
  IC50: 3.97 µM
[2]
  IC50: 3.45 µM
[3]
  EC50: > 10 µM
[4]
  IC50: 1.28 µM

## CN1C(=N)NC2(c3cc(F)ccc3F)CN(c3ncccc3-c3sccc3Cl)CC2C1=O (centres unmarked) [R/S‐WM396 (25)]
[1]
  IC50: 0.35 µM
[2]
  IC50: 1.11 µM
[3]
  EC50: 0.2 µM
[4]
  IC50: 0.009 µM
[4]; than the unsubstituted comparator analog 24
  more potent against PMX: 8 ×

## COc1ccccc1-c1cccnc1N1CC2C(=O)N(C)C(=N)NC2(c2cc(F)ccc2F)C1 (centres unmarked) [Compound 11]
[1]
  IC50: > 10 µM
[2]; compared with WM36 (8)
  improvement of PMV inhibition: 2.5 fold
[2]
  IC50: 0.303 µM
[3]
  EC50: > 10 µM
[4]
  IC50: 7.5 µM

## CN1C(=N)NC2(c3cc(F)ccc3F)CN(c3ncccc3-c3ccc(Cl)s3)CC2C1=O (centres unmarked) [Compound 26]
[2]
  IC50: 0.61 µM
[3]
  EC50: 2.5 µM
[4]
  IC50: 0.07 µM

## Cc1ccccc1-c1cccnc1N1CC2C(=O)N(C)C(=N)NC2(c2cc(F)ccc2F)C1 (centres unmarked) [Compound 9]
[1]
  IC50: 5.5 µM
[2]
  IC50: 0.61 µM
[3]
  EC50: > 10 µM
[4]
  IC50: 2.07 µM

## CN1C(=N)NC2(c3cc(F)ccc3F)CN(c3ncccc3-c3ccc(Cl)cc3)CC2C1=O (centres unmarked) [R/S‐WM48 (14), 6‐(3‐(4‐chlorophenyl)pyridin‐2‐yl)‐7a‐(2,5‐difluorophenyl)‐2‐imino‐3‐methylhexahydro‐1H‐pyrrolo[3,4‐d]pyrimidin‐4(4aH)‐one]
[1]
  IC50: 1.08 µM
[2]
  IC50: 0.357 µM
[3]
  EC50: > 10 µM
[4]
  IC50: 0.343 µM

## CN1C(=N)NC2(c3cc(F)ccc3F)CN(c3ncccc3-c3ccc(Cl)c(Cl)c3)CC2C1=O (centres unmarked) [Compound 19]
[1]
  IC50: 0.434 µM
[2]
  IC50: > 3.7 µM
[3]
  EC50: > 10 µM
[4]
  IC50: 0.187 µM

## CN1C(=N)NC2(c3cc(F)ccc3F)CN(c3ncccc3-c3ccc(Cl)cc3Cl)CC2C1=O (centres unmarked) [Compound 17]
[1]
  IC50: 0.36 µM
[2]
  IC50: 0.517 µM
[3]
  EC50: > 10 µM
[4]
  IC50: 1.07 µM

## CN1C(=N)NC2(c3cc(F)ccc3F)CN(c3ncsc3-c3ccccc3)CC2C1=O (centres unmarked) [Compound 27]
[1]
  IC50: 0.99 µM
[2]
  IC50: 0.44 µM
[3]
  EC50: > 10 µM
[4]
  IC50: 0.473 µM

## COc1cccc(-c2cccnc2N2CC3C(=O)N(C)C(=N)NC3(c3cc(F)ccc3F)C2)c1 (centres unmarked) [Compound 13]
[1]
  IC50: 0.39 to 1.17 µM and 1.17 µM
[2]
  IC50: 1.5 µM
[3]
  EC50: > 10 µM
[4]
  IC50: 0.39 to 1.17 µM and 0.473 µM

## CN1C(=N)NC2(c3cc(F)ccc3F)CN(c3ncccc3-c3ccc(F)cc3Cl)CC2C1=O (centres unmarked) [Compound 21]
[1]
  IC50: 3.23 µM
[2]
  IC50: 0.967 µM
[3]
  EC50: > 10 µM
[4]
  IC50: 0.99 µM

## CN1C(=N)NC2(c3cc(F)ccc3F)CN(c3ncccc3-c3ccc(Cl)cc3C(F)(F)F)CC2C1=O (centres unmarked) [Compound 18]
[1]
  IC50: 1.08 µM
[2]
  IC50: > 3.7 µM
[3]
  EC50: > 10 µM
[4]
  IC50: 0.483 µM

## CN1C(=N)NC2(c3cc(F)ccc3F)CN(c3ncccc3-c3ccc(Cl)cc3F)CC2C1=O (centres unmarked) [Compound 16]
[1]
  IC50: 0.417 µM
[2]
  IC50: 0.78 µM
[3]
  EC50: > 10 µM
[4]
  IC50: 1.33 µM
